The record followed here is PMC11784839, “Monoaminergic neurotransmitters are bimodal effectors of tau aggregation” (Science Advances, 2025).

The target of the test is tau (Homo sapiens, UniProt P10636). The test is described as follows: MCE Phenols Library screening, tau biosensor cell seeding assay (AvZ). Format: cell-based. The conditions noted are these: for Z repl 1 / Z Repl 2: Z score; for Z repl 1 / raw data 1: replicate 1; for Z Repl 2 / raw data 2: replicate 2; for AvZ (average z score of seeding, SDs from the mean level of seeding): 10 μM phenol in cell cultures, AD brain homogenate preincubated 16 hours, two biological replicates, positive = catalyzes seeding, negative = inhibits.
tau, sequence (P10636 623-695 limits assumed): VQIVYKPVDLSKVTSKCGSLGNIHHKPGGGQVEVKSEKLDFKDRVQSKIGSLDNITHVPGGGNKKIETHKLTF

[1] abbreviates: average Z score of the two replicates, MCE Phenols Library screen.
Where [2] appears, read: average puncta of the two replicates.
Setting [3] is: average Z score of two replicates, Phenols Library screen.
[4] abbreviates: average Z score of the two replicates, tau seeding.

Molecules are shown by their SMILES.

In the case of `CC[C@H]1CN2CCc3cc(OC)c(OC)cc3[C@@H]2C[C@@H]1C[C@H]1NCCc2cc(O)c(OC)cc21.Cl.Cl` [Cephaeline (dihydrochloride)], the “Z repl 1” value is listed as -0.202 and the “Z Repl 2” value was -0.66. Also, the “av Z” value under setting [1] is -0.431. Also, the av puncta under setting [2] is 14823.1. Besides, where the note is “raw puncta”, the “raw data 1” value was 23925.6 and the “raw data 2” value is on record as 5720.59.
Turning to `O=C(O)C[C@@H]1C(=O)O[C@H]2[C@@H]3OC(=O)c4cc(O)c(O)c(O)c4-c4c(cc(O)c(O)c4O)C(=O)OC[C@H]2O[C@@H](OC(=O)c2cc(O)c(O)c(O)c2)[C@@H]3OC(=O)c2cc(O)c(O)c3c2[C@H]1[C@H](O)C(=O)O3` [Chebulagic acid], the “Z repl 1” value is reported as -2.151. In addition, the “av Z” value under setting [1] is given as -1.662. In addition, the av puncta (average of raw data 1 and 2) came out at 382.845. Under “puncta”, the “raw data 1” value was 523.863 and the “raw data 2” value amounted to 241.827.
For `O=C(O)C[C@H](C(=O)O)[C@H]1c2c(cc(O)c(O)c2O)C(=O)O[C@@H]1C(=O)O` [Chebulic acid] the same measures were -1.01, -1.092, 7230.09, 14229.4 and 230.797.
Turning to `O=C(O)C[C@@H]1C(=O)O[C@H]2[C@H](OC(=O)c3cc(O)c(O)c(O)c3)[C@@H](OC(=O)c3cc(O)c(O)c4c3[C@H]1[C@H](O)C(=O)O4)[C@H](OC(=O)c1cc(O)c(O)c(O)c1)O[C@@H]2COC(=O)c1cc(O)c(O)c(O)c1` [Chebulinic acid], the “Z repl 1” value is given as -2.186 and the “Z Repl 2” value was -1.184. The “av Z” value under setting [1] is -1.685. For the same compound, the av puncta (average of raw data 1 and 2) was 117.372. Under “puncta”, the “raw data 1” value worked out at 108.91 and the “raw data 2” value worked out at 125.835.
For `O=C(/C=C/c1ccc(O)c(O)c1)O[C@@H]1C[C@](O)(C(=O)O)C[C@@H](O)[C@H]1O` [Chlorogenic acid], the “Z repl 1” value is listed as 0.232 and the “Z Repl 2” value is -0.247. Besides, the “av Z” value under setting [3] is recorded as -0.007. Where the note is “average of raw data 1 and 2”, this compound yielded an av puncta of 19631.7. Further, for the setting “puncta”, the “raw data 1” value is on record as 29136 and the “raw data 2” value was 10127.4.
With `O=C(O)[C@H]1O[C@@H](Oc2cc(O)c3c(=O)cc(-c4ccccc4)oc3c2)[C@H](O)[C@@H](O)[C@@H]1O` [Chrysin-7-O-glucuronide], the “Z repl 1” value came to 0.79 and the “Z Repl 2” value was determined as 0.073. Besides, the “av Z” value under setting [4] came out at 0.431. Besides, the av puncta (average of raw data 1 and 2) was 24687.2. Further, under “puncta”, the “raw data 1” value worked out at 35829.5 and the “raw data 2” value was 13544.8.
On to `COc1cc(-c2cc(=O)c3c(O)cc(O)cc3o2)ccc1O` [Chrysoeriol], for which the “Z repl 1” value came out at 0.623 and the “Z Repl 2” value is -0.203. In addition, the “av Z” value under setting [4] is listed as 0.21. Under “average of raw data 1 and 2”, this compound yielded an av puncta of 22210.2. For the same compound, where the note is “puncta”, the “raw data 1” value turned out to be 33824.2 and the “raw data 2” value worked out at 10596.2.
`COc1cc(-c2oc3cc(OC)c(OC)c(O)c3c(=O)c2OC)ccc1O` [Chrysosplenetin]: the “Z repl 1” value is given as 0.088 and the “Z Repl 2” value is -0.899. Moreover, under setting [1], the “av Z” value is on record as -0.406. Under setting [2], the av puncta stood at 15282.9. Also, under “raw puncta”, the “raw data 1” value is on record as 27400 and the “raw data 2” value was determined as 3165.82.
With `COc1cc(CCO[C@@H]2O[C@H](CO[C@@H]3O[C@H](CO)[C@@H](O)[C@H](O)[C@H]3O)[C@@H](OC(=O)/C=C/c3ccc(O)c(O)c3)[C@H](O[C@@H]3O[C@@H](C)[C@H](O)[C@@H](O)[C@H]3O)[C@H]2O)ccc1O` [Cistanoside A], the “Z repl 1” value was -0.369 and the “Z Repl 2” value is listed as -0.502. For the same compound, under setting [1], the “av Z” value is recorded as -0.435. Moreover, the av puncta under setting [2] is 14662.2. Under “raw puncta”, the “raw data 1” value was found to be 21923.2 and the “raw data 2” value was 7401.19.
Regarding `C[C@@H]1O[C@@H](OC[C@H]2O[C@@H](Oc3c(-c4ccc(O)cc4)oc4cc(O)cc(O)c4c3=O)[C@H](O[C@@H]3O[C@@H](C)[C@H](O)[C@@H](O)[C@H]3O)[C@@H](O)[C@@H]2O)[C@H](O)[C@H](O)[C@H]1O` [Clitorin], the “Z repl 1” value is reported as -0.088 and the “Z Repl 2” value is on record as -0.968. Moreover, the “av Z” value under setting [1] is -0.528. The av puncta under setting [2] came out at 13858.4. Further, under “puncta”, the “raw data 1” value came to 25288.8 and the “raw data 2” value stood at 2427.91.
In the case of `O=C(/C=C/c1ccc(O)c(O)c1)N[C@@H](Cc1ccc(O)c(O)c1)C(=O)O` [Clovamide], the “Z repl 1” value is reported as -0.17 and the “Z Repl 2” value is on record as -1.084. The “av Z” value under setting [1] is listed as -0.627. The av puncta under setting [2] turned out to be 12750.8. Moreover, under “puncta”, the “raw data 1” value came out at 24311.1 and the “raw data 2” value is 1190.55.
Consider `COc1cc2c(cc1O)-c1cc3ccc(OC)c(OC)c3c[n+]1CC2` [Columbamine], for which the “Z repl 1” value is recorded as 0.655 and the “Z Repl 2” value was 0.636. Moreover, under setting [4], the “av Z” value worked out at 0.646. Moreover, the av puncta (average of raw data 1 and 2) came to 26887.1. Further, for the setting “puncta”, the “raw data 1” value stood at 34211.5 and the “raw data 2” value came to 19562.6.
With `COc1ccc2c(c1)OC[C@@H](c1cc(O)c(OC)c(OC)c1O)C2` [Colutehydroquinone], the “Z repl 1” value came to 0.366 and the “Z Repl 2” value came out at 0.999. The “av Z” value under setting [4] was found to be 0.683. The compound further showed an av puncta (average of raw data 1 and 2) of 27089.5. Besides, under “puncta”, the “raw data 1” value is given as 30747.2 and the “raw data 2” value was found to be 23431.8.
Take `COc1cc(O)c2c(=O)c(O[C@@H]3O[C@H](CO)[C@@H](O)[C@H](O)[C@H]3O)c(-c3ccc(O[C@@H]4O[C@H](CO)[C@@H](O)[C@H](O)[C@H]4O)cc3)oc2c1` [Complanatuside]: the “Z repl 1” value is reported as -0.533 and the “Z Repl 2” value is -0.238. In addition, under setting [1], the “av Z” value was -0.385. For the same compound, the av puncta under setting [2] was 15089. For the same compound, where the note is “raw puncta”, the “raw data 1” value came out at 19953.5 and the “raw data 2” value is listed as 10224.5.
For `COc1cc(/C=C/CO)ccc1O` [Coniferyl alcohol], the “AvZ (average z score of seeding, SDs from the mean level of seeding)” value is given as 0.529; the “Z repl 1” value is given as 0.738; the “Z Repl 2” value was determined as 0.319. Where the note is “average of raw data 1 and 2”, the av puncta was 25693.5. For the setting “puncta”, the “raw data 1” value turned out to be 35213 and the “raw data 2” value is recorded as 16173.9.
As to `COc1cc(/C=C/COC(=O)/C=C/c2ccc(O)c(OC)c2)ccc1O` [Coniferyl ferulate], the “Z repl 1” value amounted to 0.368 and the “Z Repl 2” value is on record as -0.434. Besides, the “av Z” value under setting [3] is -0.033. This compound registered an av puncta (average of raw data 1 and 2) of 19449.2. In addition, for the setting “puncta”, the “raw data 1” value was found to be 30768 and the “raw data 2” value was 8130.42.
Take `O=C(O[C@@H]1O[C@@H]2COC(=O)c3cc(O)c(O)c(O)c3-c3c(cc(O)c(O)c3O)C(=O)O[C@H]([C@H]1O)[C@@H]2O)c1cc(O)c(O)c(O)c1` [Corilagin]: the “Z repl 1” value is listed as -1.842 and the “Z Repl 2” value is listed as -1.134. Further, the “av Z” value under setting [1] is -1.488. The compound also registered an av puncta (average of raw data 1 and 2) of 2445.41. Further, where the note is “puncta”, the “raw data 1” value worked out at 4240.16 and the “raw data 2” value is listed as 650.661.
With `CC(C)=CCC/C(C)=C/Cc1cc(-c2coc3cc(O)ccc3c2=O)ccc1O` [Corylifol A], the “Z repl 1” value was 0.054 and the “Z Repl 2” value is on record as -0.445. In addition, the “av Z” value under setting [3] is recorded as -0.196. Where the note is “average of raw data 1 and 2”, this compound displayed an av puncta of 17502.5. Besides, under “puncta”, the “raw data 1” value was 26996.8 and the “raw data 2” value is listed as 8008.18.
For `COc1cc2c(cc1O)CCN1Cc3c(ccc(OC)c3OC)CC21` (stereo not shown) [Corypalmine], the “Z repl 1” value is recorded as 0.295 and the “Z Repl 2” value was -0.524. Moreover, the “av Z” value under setting [3] is on record as -0.114. The av puncta (average of raw data 1 and 2) is listed as 18532.2. Further, for the setting “puncta”, the “raw data 1” value is on record as 29892.4 and the “raw data 2” value is recorded as 7171.93.
`O=c1oc2cc(O)ccc2c2oc3cc(O)ccc3c12` [Coumestrol]: the “Z repl 1” value is -0.018 and the “Z Repl 2” value is -0.542. In addition, under setting [1], the “av Z” value was -0.28. The compound also yielded an av puncta under setting [2] of 16558.4. Further, under “raw puncta”, the “raw data 1” value was determined as 26137.6 and the “raw data 2” value came to 6979.18.
As for `COc1cc(C)ccc1O` [Creosol], the “AvZ (average z score of seeding, SDs from the mean level of seeding)” value amounted to 0.768; the “Z repl 1” value was determined as 0.313; the “Z Repl 2” value is 1.224. Under “average of raw data 1 and 2”, the av puncta was found to be 27969.9. Further, where the note is “puncta”, the “raw data 1” value came to 30100.9 and the “raw data 2” value was found to be 25838.9.
For `O=C(/C=C/c1ccc(O)c(O)c1)O[C@H]1[C@H](O)C[C@](O)(C(=O)O)C[C@H]1O` [Cryptochlorogenic acid], the “Z repl 1” value stood at 0.935 and the “Z Repl 2” value is 0.427. Moreover, under setting [4], the “av Z” value is reported as 0.681. Moreover, where the note is “average of raw data 1 and 2”, the av puncta was found to be 27449.5. In addition, for the setting “puncta”, the “raw data 1” value is on record as 37574 and the “raw data 2” value stood at 17325.
Consider `COc1cccc(OC)c1C(=O)OCc1cc(O)ccc1O[C@@H]1O[C@H](CO)[C@@H](O)[C@H](O)[C@H]1O` [Curculigoside], for which the “Z repl 1” value is recorded as -0.772 and the “Z Repl 2” value was 0.136. The “av Z” value under setting [1] is reported as -0.318. In addition, the av puncta under setting [2] worked out at 15649.1. Further, for the setting “raw puncta”, the “raw data 1” value amounted to 17078.1 and the “raw data 2” value came out at 14220.1.
With `OC[C@H]1O[C@@H](Oc2cc3c(O)cc(O)cc3[o+]c2-c2ccc(O)c(O)c2)[C@H](O[C@@H]2OC[C@@H](O)[C@H](O)[C@H]2O)[C@@H](O)[C@@H]1O.[Cl-]` [Cyanidin 3-sambubioside (chloride)], the “Z repl 1” value is recorded as -0.124 and the “Z Repl 2” value was -1.008. Also, the “av Z” value under setting [1] is reported as -0.566. Moreover, under setting [2], the av puncta is reported as 13432.8. Also, for the setting “puncta”, the “raw data 1” value came to 24866.3 and the “raw data 2” value amounted to 1999.21.
